Experimental data from patent publication US11845752B2, “Substituted imidazo[1,5-a]pyrazines for the treatment of hepatitis B” (ALIGOS THERAPEUTICS, INC., priority 2020, dated 2023).

system: HBV; test: HBV-DNA antiviral assay using HepG2.117 cells (intracellular HBV DNA by qPCR); format: cell-based, HBV genotype D; conditions: Hepatitis B virus, HepG2.117, 72 h, HBV DNA inhibition, 3 days incubation, read-out: EC50
Description: The following assay procedure describes the HBV antiviral assay, using HepG2.117 cells, which carry a stably integrated genotype D HBV genome under the control of a Tet-off promoter, and intracellular HBV DNA quantification as endpoint. Cell viability is assessed in parallel by measuring the intracellular ATP content using ATPlite (Perkin Elmer).
On day 0, HepG2.117 cells (which are maintained in routine cell culture with doxycycline present in the medium at a final concentration of 1 μg/mL) were seeded in 96-well plates (white with clear bottom) at a density of 2.0×10^4 cells/well (0.1 mL/well) in medium without doxycycline to induce pgRNA transcription and subsequent formation of HBV particles. The cells were incubated at 37° C. and 5% CO2.
On day 1, medium was removed from each well, the test articles were diluted in culture medium without doxcycyline and 100 μL was added to cell culture wells (9 concentrations, 4-fold dilution). For each plate, 6 untreated (merely DMSO) wells were included. The final concentration of DMSO in the culture medium was 2%. Each plate was prepared in duplicate (one for HBV DNA extraction, one for ATPlite measurement). The cells were incubated at 37° C. and 5% CO2 for 3 days.
On day 4, cell viability was assessed using ATPlite and cell lysates were prepared for HBV DNA extraction and subsequent quantification by qPCR.
Medium was removed from each well and 100 μL of 0.33% NP-40 in H2O was added to each well. Plates were sealed, incubated at 4° C. for 5 mins, vortexed extensively and centrifuged briefly. Next, 35 μL of lysate was added to 65 μL QuickExtract DNA Extraction Solution (Epicentre) in a PCR plate for each well. PCR plate was incubated at 65° C. for 6 mins, 98° C. for 2 mins and finally cooled to 4° C. HBV DNA was then quantified by qPCR with HBV-specific primers and probes as specified in Table 1 using the Bio-Rad SSOAdvanced Universal Probes Supermix on a CFX96 machine (Bio-Rad). The PCR cycle program consisted of 95° C. for 3 mins, followed by 40 cycles at 95° C. for 10 sec and 60° C. for 30 sec.
A DNA standard was prepared by dilution of an IDT gBlock corresponding to the amplicon with concentrations ranging from 10^2 to 10^8 copies/input (i.e. per 4 μL) and used to generate a standard curve by plotting Cq values vs. HBV DNA standard concentration. The quantity of HBV DNA in each sample was determined by interpolating from the standard curve.
Cell viability was calculated as follows: % Cell viability=(luminescence value of test sample)/(average luminescence value of 2% DMSO control)×100%. HBV DNA inhibition was calculated as follows: 100−(HBV DNA copy number of test sample)/(average HBV DNA copy number of 2% DMSO control)×100%. No normalization to entecavir was required due to the excellent dynamic window of this assay. The CC50, EC50 and EC90 values were determined by dose-response curves fitted using non-linear regression.

SMILES | EC50
C[C@@H]1Cn2c(c(C(=O)NCc3ccccc3-c3ncccn3)n(-c3ccc(OC[C@H](O)C(F)(F)F)cc3)c2=O)CN1C(=O)c1ccc(Br)c(C(F)(F)F)c1 (mixture of isomers) [Compound 75a, (6RS)-7-[4-bromo-3-(trifluoromethyl)benzoyl]-6-methyl-3-oxo-N-[(2-pyrimidin-2-ylphenyl)methyl]-2-[4-[(2S)-3,3,3-trifluoro-2-hydroxy-propoxy]phenyl]-6,8-dihydro-5H-imidazo[1,5-a]pyrazine-1-carboxamide] | < 50 nM
C[C@H]1Cn2c(c(C(=O)NCc3ccccc3-c3ncccn3)n(-c3ccc(OC[C@H](O)C(F)(F)F)cc3)c2=O)CN1C(=O)c1ccc(Br)c(C(F)(F)F)c1 (mixture of isomers) [Compound 75b, (6SR)-7-[4-bromo-3-(trifluoromethyl)benzoyl]-6-methyl-3-oxo-N-[(2-pyrimidin-2-ylphenyl)methyl]-2-[4-[(2S)-3,3,3-trifluoro-2-hydroxy-propoxy]phenyl]-6,8-dihydro-5H-imidazo[1,5-a]pyrazine-1-carboxamide] | 50 to 500 nM
C[C@@H]1Cn2c(c(C(=O)NCc3ccccc3-c3ccncn3)n(-c3ccc(N4CCN(C)[C@H](C(F)(F)F)C4)cc3)c2=O)CN1C(=O)c1ccc(Br)c(C(F)(F)F)c1 (mixture of isomers) [Compound 87a, (6RS)-7-[4-bromo-3-(trifluoromethyl)benzoyl]-6-methyl-2-[4-[(3S)-4-methyl-3-(trifluoromethyl)piperazin-1-yl]phenyl]-3-oxo-N-[(2-pyrimidin-4-ylphenyl)methyl]-6,8-dihydro-5H-imidazo[1,5-a]pyrazine-1-carboxamide] | 50 to 500 nM
C[C@H]1Cn2c(c(C(=O)NCc3ccccc3-c3ccncn3)n(-c3ccc(N4CCN(C)[C@H](C(F)(F)F)C4)cc3)c2=O)CN1C(=O)c1ccc(Br)c(C(F)(F)F)c1 (mixture of isomers) [Compound 87b, (6SR)-7-[4-bromo-3-(trifluoromethyl)benzoyl]-6-methyl-2-[4-[(3S)-4-methyl-3-(trifluoromethyl)piperazin-1-yl]phenyl]-3-oxo-N-[(2-pyrimidin-4-ylphenyl)methyl]-6,8-dihydro-5H-imidazo[1,5-a]pyrazine-1-carboxamide] | < 50 nM
C[C@H](O)Cn1ncc2cc(-n3c(C(=O)NCc4ccccc4-c4ncccn4)c4n(c3=O)C[C@@H](C)N(C(=O)c3ccc(Br)c(C(F)(F)F)c3)C4)ccc21 (mixture of isomers) [Compound 94a, (6RS)-7-[4-bromo-3-(trifluoromethyl)benzoyl]-2-[1-[(2S)-2-hydroxypropyl]indazol-5-yl]-6-methyl-3-oxo-N-[(2-pyrimidin-2-ylphenyl)methyl]-6,8-dihydro-5H-imidazo[1,5-a]pyrazine-1-carboxamide] | 50 to 500 nM
C[C@H](O)Cn1ncc2cc(-n3c(C(=O)NCc4ccccc4-c4ncccn4)c4n(c3=O)C[C@H](C)N(C(=O)c3ccc(Br)c(C(F)(F)F)c3)C4)ccc21 (mixture of isomers) [Compound 94b, (6SR)-7-[4-bromo-3-(trifluoromethyl)benzoyl]-2-[1-[(2S)-2-hydroxypropyl]indazol-5-yl]-6-methyl-3-oxo-N-[(2-pyrimidin-2-ylphenyl)methyl]-6,8-dihydro-5H-imidazo[1,5-a]pyrazine-1-carboxamide] | 50 to 500 nM
C[C@H]1Cn2c(c(C(=O)NCc3ccccc3-c3ncccn3)n(-c3ccc4c(cnn4C[C@@H](O)C(F)(F)F)c3)c2=O)CN1C(=O)c1ccc(Br)c(C(F)(F)F)c1 (mixture of isomers) [Compound 101b, (6SR)-7-[4-bromo-3-(trifluoromethyl)benzoyl]-6-methyl-3-oxo-N-[(2-pyrimidin-2-ylphenyl)methyl]-2-[1-[(2R)-3,3,3-trifluoro-2-hydroxy-propyl]indazol-5-yl]-6,8-dihydro-5H-imidazo[1,5-a]pyrazine-1-carboxamide] | < 50 nM
C[C@@H]1Cn2c(c(C(=O)NCc3ccccc3-c3ncccn3)n(-c3ccc4c(cnn4C[C@H](O)C(F)(F)F)c3)c2=O)CN1C(=O)c1ccc(Br)c(C(F)(F)F)c1 (mixture of isomers) [Compound 102a, (6RS)-7-[4-bromo-3-(trifluoromethyl)benzoyl]-6-methyl-3-oxo-N-[(2-pyrimidin-2-ylphenyl)methyl]-2-[1-[(2S)-3,3,3-trifluoro-2-hydroxy-propyl]indazol-5-yl]-6,8-dihydro-5H-imidazo[1,5-a]pyrazine-1-carboxamide] | 50 to 500 nM
C[C@H]1Cn2c(c(C(=O)NCc3ccccc3-c3ncccn3)n(-c3ccc4c(cnn4C[C@H](O)C(F)(F)F)c3)c2=O)CN1C(=O)c1ccc(Br)c(C(F)(F)F)c1 (mixture of isomers) [Compound 102b, (6SR)-7-[4-bromo-3-(trifluoromethyl)benzoyl]-6-methyl-3-oxo-N-[(2-pyrimidin-2-ylphenyl)methyl]-2-[1-[(2S)-3,3,3-trifluoro-2-hydroxy-propyl]indazol-5-yl]-6,8-dihydro-5H-imidazo[1,5-a]pyrazine-1-carboxamide] | < 50 nM
C[C@H]1Cn2c(c(C(=O)NCc3ccccc3-c3ncccn3)n(-c3ccc4nn(C[C@@H](O)C(F)(F)F)cc4c3)c2=O)CN1C(=O)c1ccc(Br)c(C(F)(F)F)c1 (mixture of isomers) [Compound 105b, (6SR)-7-[4-bromo-3-(trifluoromethyl)benzoyl]-6-methyl-3-oxo-N-[(2-pyrimidin-2-ylphenyl)methyl]-2-[2-[(2R)-3,3,3-trifluoro-2-hydroxy-propyl]indazol-5-yl]-6,8-dihydro-5H-imidazo[1,5-a]pyrazine-1-carboxamide] | 50 to 500 nM
C[C@@H]1Cn2c(c(C(=O)NCc3ccccc3-c3ncccn3)n(-c3ccc4nn(C[C@H](O)C(F)(F)F)cc4c3)c2=O)CN1C(=O)c1ccc(Br)c(C(F)(F)F)c1 (mixture of isomers) [Compound 107a, (6RS)-7-[4-bromo-3-(trifluoromethyl)benzoyl]-6-methyl-3-oxo-N-[(2-pyrimidin-2-ylphenyl)methyl]-2-[2-[(2S)-3,3,3-trifluoro-2-hydroxy-propyl]indazol-5-yl]-6,8-dihydro-5H-imidazo[1,5-a]pyrazine-1-carboxamide] | 50 to 500 nM
C[C@H]1Cn2c(c(C(=O)NCc3ccccc3-c3ncccn3)n(-c3ccc4nn(C[C@H](O)C(F)(F)F)cc4c3)c2=O)CN1C(=O)c1ccc(Br)c(C(F)(F)F)c1 (mixture of isomers) [Compound 107b, (6SR)-7-[4-bromo-3-(trifluoromethyl)benzoyl]-6-methyl-3-oxo-N-[(2-pyrimidin-2-ylphenyl)methyl]-2-[2-[(2S)-3,3,3-trifluoro-2-hydroxy-propyl]indazol-5-yl]-6,8-dihydro-5H-imidazo[1,5-a]pyrazine-1-carboxamide] | 50 to 500 nM
C[C@@H]1Cn2c(c(C(=O)NCc3ccccc3-c3ccn(CC(F)(F)F)n3)n(-c3ccc4c(cnn4C[C@@H](C)O)c3)c2=O)CN1C(=O)c1ccc(Br)c(C(F)(F)F)c1 (mixture of isomers) [Compound 111a, (6RS)-7-[4-bromo-3-(trifluoromethyl)benzoyl]-2-[1-[(2R)-2-hydroxypropyl]indazol-5-yl]-6-methyl-3-oxo-N-[[2-[1-(2,2,2-trifluoroethyl)pyrazol-3-yl]phenyl]methyl]-6,8-dihydro-5H-imidazo[1,5-a]pyrazine-1-carboxamide] | 50 to 500 nM
C[C@@H](O)Cn1ncc2cc(-n3c(C(=O)NCc4ccccc4-c4ccn(CC(F)(F)F)n4)c4n(c3=O)C[C@H](C)N(C(=O)c3ccc(Br)c(C(F)(F)F)c3)C4)ccc21 (mixture of isomers) [Compound 111b, (6SR)-7-[4-bromo-3-(trifluoromethyl)benzoyl]-2-[1-[(2R)-2-hydroxypropyl]indazol-5-yl]-6-methyl-3-oxo-N-[[2-[1-(2,2,2-trifluoroethyl)pyrazol-3-yl]phenyl]methyl]-6,8-dihydro-5H-imidazo[1,5-a]pyrazine-1-carboxamide] | 50 to 500 nM
CNc1ccnc(-c2ccccc2CNC(=O)c2c3n(c(=O)n2-c2ccc(OC4CC4)cc2)C[C@H](C)N(C(=O)c2ccc(Br)c(Cl)c2)C3)n1 (racemic) [Compound 26b] | < 50 nM
